# Measurements as given in ChEMBL document CHEMBL1155170, “Rapid dissemination and diversity of CTX-M extended-spectrum beta-lactamase genes in commensal Escherichia coli isolates from healthy children from low-resource settings in Latin America” (2007).
# Columns and labels:
# Escherichia coli [1] = assay: Antimicrobial activity against CTX-M extended-spectrum beta-lactamase producing commensal Escherichia coli isolates from healthy children assessed as percent resistant isolates by disc diffusion method; format: functional
# Escherichia coli [2] = assay: Antimicrobial activity against CTX-M-15 extended-spectrum beta-lactamase producing commensal Escherichia coli isolates from healthy children assessed as percent resistant isolates by disc diffusion method; format: functional
Structure (SMILES),Activity (Escherichia coli [1]),Activity (Escherichia coli [2])
CN(C)[C@@H]1C(O)=C(C(N)=O)C(=O)[C@@]2(O)C(O)=C3C(=O)c4c(O)cccc4[C@@](C)(O)[C@H]3C[C@@H]12 [TETRACYCLINE],86%,–
CCn1cc(C(=O)O)c(=O)c2ccc(C)nc21 [NALIDIXIC ACID],57%,93%
O=C(O)c1cn(C2CC2)c2cc(N3CCNCC3)c(F)cc2c1=O [CIPROFLOXACIN],54%,93%
